The results in this text go back to PMC5514948, “Stereochemical preference toward oncotarget: Design, synthesis and in vitro anticancer evaluation of diastereomeric β-lactams” (Oncotarget, 2017).

Structures are written as SMILES. Several values for one entry are separate records, joined by “and”; a condition that tells them apart may be missing. Identical values can stand only once.

Series [1] deals with K562 (human immortalized myelogenous leukemia) cells. The series can be described thus: Cytotoxic activity, WST-1 assay, K562. The class given is cell-based. The protocol: (§1) In vitro anticancer assays were performed in triplicate for the determination of mean values. The human cervical carcinoma SiHa, murine melanoma B16F10, chronic myelogenous leukemia (CML) K562, and Chang cell lines were cultured in minimum essential medium of Eagle at 37 °C in a […] atmosphere with 10% fetal bovine serum, 2 mM L-glutamine and 1% penicillin/streptomycin. Cells were trypsinized and seeded at a density of 5 × 10^4 cells/mL in a 96-well plate and incubated at 37 °C, […] atmosphere for 24 h. Thereafter the cells were treated with azetidin-2-one derivatives (dissolved in DMSO) at various concentrations between 312 nM–10 μM, and re-incubated for further 72 h. Wells containing the equal volume of the vehicle DMSO (1% v/v) were used as background (negative control). The culture medium was then removed and the cells washed with 100 μL phosphate buffered saline (PBS); then 10 μL WST-1 (Roche, USA) was added. Cells were incubated for 2 h in absence of light at 37°C, and absorbance was read subsequently. […] Afterwards, these values were used to assess half maximal inhibitory concentration (IC50) using Graph-Pad Prism software.
For orientation: Tetrazolium assays rely on reduction of a dye to a coloured formazan, in cell work by metabolically active cells.

Series [2] has as its system Chang (normal liver) cells. Briefly: cells. The note with it: 72 h, WST-1, triplicate. It is filed as cell-based. The protocol: as §1
For series [3], the system named is B16F10 (murine melanoma) cells. Briefly: Cytotoxic activity, WST-1 assay, B16F10. The class given is cell-based. The protocol:
as §1

The subject of series [4] is SiHa (human cervical carcinoma) cells. The series can be described thus: Cytotoxic activity, WST-1 assay, SiHa. It is filed as cell-based. The protocol:
as §1

The subject of the next series is Chang cells. The series can be described thus: Hematoxylin/Eosin staining of Chang cells. The class given is cell-based. Conditions: 24 h, 6C 1 μM, taxol. The protocol:
(§2) The cytotoxic effect of the compound 6C in SiHa and Chang cells has been studied (Figure 2).
(§3) Cells (10 × 10^4) were grown on coated poly-lysine coverslips which were placed in 6-well microplates overnight and then incubated for 24 h in the presence of compound 6C or taxol, subsequently stained with hematoxylin and eosin. Coverslips were then observed by Light microscopy of bright field (40X).

The next series concerns SiHa cells. The series can be described thus: Hematoxylin/Eosin staining of SiHa cells. Conditions: 24 h, 6C 1 μM, taxol. The class given is cell-based, human. How it is done:
as §2, §3

Series [5] has as its system caspase-3 activation in B16F10 cells. Briefly: Apoptotic activity, caspase-3 assay. Conditions: 24 h, podophyllotoxin as positive control. It is filed as cell-based, murine. The protocol: The mechanism of cell death was identified as apoptosis. It was validated with the compound 6C. Enzyme activity associated with the induction of apoptosis was determined by caspase-3 assay (Invitrogen, USA) as described in the protocol. A concentration of approximately 3 × 10^6 cells/mL (B16F10) was taken and incubated for 24 h at 37 °C in 5% CO2 environment. Podophyllotoxin (apoptosis inducing agent) was used as positive control. After incubation for 24 h the cells were re-suspended and 50 μL of cell lysis reagent was added, then cells were incubated for 10 min in ice bath and centrifuged. The supernatant (cytosol extract) was transferred into a new effendrof. Cytosol extract was diluted with cell lysis reagent to a concentration of 2 μg/μL, in a total volume of 50 μL. Then 50 μL of 2X reaction buffer and 5 μL of tetrapeptide-p-nitroaniline (DEVD-pNA) were added. It was incubated at 37 °C for 2 h (in dark), and finally the optical density at 405 nm was measured with an ELISA Reader. Caspase-3 activity was calculated that confirmed apoptosis as the mechanism of cell death.

For `COc1ccc([C@@H]2[C@H](N)C(=O)N2c2ccc(OC)cc2)cc1` (racemic) [1C, (±)-Cis-3-amino-1,4-bis(4-methoxyphenyl) azetidin-2-one], the IC50 (as a rule, the midpoint of a concentration-inhibition curve) in series [1] (72 h, WST-1, triplicate) is over 10 µM; in series [2] it was 6.21 ± 0.5 µM; in series [3] (72 h, WST-1, triplicate), 3.33 ± 0.3 µM; in series [4] (72 h, WST-1, triplicate), 4.21 ± 0.4 µM.
As to `COc1ccc([C@H]2[C@H](N)C(=O)N2c2ccc(OC)cc2)cc1` (racemic) [1T, (±)-Trans-3-amino-1,4-bis(4-methoxyphenyl) azetidin-2-one], the IC50 in series [1] (72 h, WST-1, triplicate) is over 10 µM; in series [2] it was 7.91 ± 0.4 µM; in series [3] (72 h, WST-1, triplicate) it was 5.16 ± 0.5 µM; in series [4] (72 h, WST-1, triplicate), 7.17 ± 0.3 µM.
As to `COc1ccc([C@@H]2[C@H](N)C(=O)N2c2ccccc2)cc1` (racemic) [2C, (±)-Cis-3-amino-4-(4-methoxyphenyl)-1-phenyl-azetidin-2-one], the IC50 in series [1] (72 h, WST-1, triplicate) is over 10 µM; in series [2] it was 8.03 ± 0.5 µM; in series [4] (72 h, WST-1, triplicate), 6.2 ± 0.6 µM.
Regarding `COc1ccc([C@H]2[C@H](N)C(=O)N2c2ccccc2)cc1` (racemic) [2T, (±)-Trans-3-amino-4-(4-methoxyphenyl)-1-phenyl-azetidin-2-one], the half-maximal inhibitory concentration (IC50) in series [1] (72 h, WST-1, triplicate) was over 10 µM; in series [2] it was over 10 µM; in series [3] (72 h, WST-1, triplicate), 7.63 ± 0.4 µM; in series [4] (72 h, WST-1, triplicate) it was 7.14 ± 0.5 µM.
`COc1ccc(N2C(=O)[C@@H](N)[C@H]2c2ccc(OC)c(OC)c2)cc1` (racemic) [3C, (±)-Cis-3-amino-4-(3,4-dimethoxyphenyl)-1-(4-methoxyphenyl) azetidin-2-one]: the IC50 in series [1] (72 h, WST-1, triplicate) is 6.14 ± 0.4 µM; in series [2] it was 9.32 ± 0.6 µM; in series [3] (72 h, WST-1, triplicate), < 5 µM and 3.91 µM; in series [4] (72 h, WST-1, triplicate), 5.1 ± 0.4 µM.
On to `COc1ccc(N2C(=O)[C@@H](N)[C@@H]2c2ccc(OC)c(OC)c2)cc1` (racemic) [3T, (±)-Trans-3-amino-4-(3,4-dimethoxyphenyl)-1-(4-methoxyphenyl) azetidin-2-one], for which the IC50 in series [1] (72 h, WST-1, triplicate) was over 10 µM; in series [2], over 10 µM; in series [3] (72 h, WST-1, triplicate), over 10 µM; in series [4] (72 h, WST-1, triplicate), over 10 µM.
`COc1ccc(N2C(=O)[C@@H](N)[C@H]2c2ccccc2[N+](=O)[O-])cc1` (racemic) [4C, (±)-Cis-3-amino-1-(4-methoxyphenyl)-4-(2-nitrophenyl) azetidin-2-one]: the IC50 in series [1] (72 h, WST-1, triplicate) is over 10 µM; in series [2], 7.37 ± 0.4 µM; in series [3] (72 h, WST-1, triplicate) it was 5.91 ± 0.6 µM; in series [4] (72 h, WST-1, triplicate) it was 7.28 ± 0.5 µM.
The matching figures for `COc1ccc(N2C(=O)[C@@H](N)[C@@H]2c2ccccc2[N+](=O)[O-])cc1` (racemic) [4T, (±)-Trans-3-amino-1-(4-methoxyphenyl)-4-(2-nitrophenyl) azetidin-2-one]: over 10 µM, over 10 µM, over 10 µM and 8.12 ± 0.4 µM.
On to `COc1ccc(N2C(=O)[C@@H](N)[C@H]2c2ccc(C)cc2)cc1` (racemic) [5C, (±)-Cis-3-amino-1-(4-methoxyphenyl)-4-(p-tolyl) azetidin-2-one], for which the IC50 in series [1] (72 h, WST-1, triplicate) was over 10 µM; in series [2] it was 7.01 ± 0.1 µM; in series [4] (72 h, WST-1, triplicate), 4.03 ± 0.5 µM.
As for `COc1ccc(N2C(=O)[C@@H](N)[C@@H]2c2ccc(C)cc2)cc1` (racemic) [5T, (±)-Trans-3-amino-1-(4-methoxyphenyl)-4-(p-tolyl)azetidin-2-one], the IC50 in series [1] (72 h, WST-1, triplicate) was over 10 µM; in series [2] it was over 10 µM; in series [3] (72 h, WST-1, triplicate), 7.14 ± 0.6 µM; in series [4] (72 h, WST-1, triplicate), 7.79 ± 0.5 µM.
As to `Cc1ccc([C@@H]2[C@H](N)C(=O)N2c2ccccc2)cc1` (racemic) [6C, (±)-Cis-3-amino-1-phenyl-4-(p-tolyl) azetidin-2-one], the “Morphological effect, Hematoxylin/Eosin staining” value was “appearance of multiple intracytoplasmic vacuoles” with Chang cells; “loss of cytoplasm and decrease in the size of nuclei” with SiHa cells. Besides, the IC50 in series [1] (72 h, WST-1, triplicate) is over 10 µM; in series [2], 6.89 ± 0.3 µM; in series [3] (72 h, WST-1, triplicate), 0.7 ± 0.1 µM; in series [4] (72 h, WST-1, triplicate), 2.34 ± 0.2 µM. Moreover, in series [3] (B16F10 cell lines, compared to colchicine), the “times higher potency than colchicine” value is given as “six”. Besides, the “Apoptosis through caspase-3 activation” value in series [5] is “demonstrated apoptosis in B16F10 cancer cells through caspase-3 activation”.
In the case of `Cc1ccc([C@H]2[C@H](N)C(=O)N2c2ccccc2)cc1` (racemic) [6T, (±)-Trans-3-amino-1-phenyl-4-(p-tolyl)azetidin-2-one], the IC50 in series [1] (72 h, WST-1, triplicate) is over 10 µM; in series [2], over 10 µM; in series [3] (72 h, WST-1, triplicate), 5.79 ± 0.4 µM; in series [4] (72 h, WST-1, triplicate), 4.79 ± 0.6 µM.
`COc1ccc(N2C(=O)[C@@H](N)[C@H]2c2ccccn2)cc1` (racemic) [7C, (±)-Cis-3-amino-1-(4-methoxyphenyl)-4-(2-pyridyl)azetidin-2-one]: the IC50 in series [1] (72 h, WST-1, triplicate) is 6.86 ± 0.4 µM; in series [2] it was 5.49 ± 0.4 µM; in series [3] (72 h, WST-1, triplicate), over 10 µM; in series [4] (72 h, WST-1, triplicate), 8.43 ± 0.3 µM.
Turning to `COc1ccc(N2C(=O)[C@@H](N)[C@@H]2c2ccccn2)cc1` (racemic) [7T, (±)-Trans-3-amino-1-(4-methoxyphenyl)-4-(2-pyridyl)azetidin-2-one], the IC50 in series [1] (72 h, WST-1, triplicate) is over 10 µM; in series [2] it was over 10 µM; in series [3] (72 h, WST-1, triplicate), over 10 µM; in series [4] (72 h, WST-1, triplicate), over 10 µM.
For `CC(=O)O[C@H]1C(=O)[C@@]2(C)[C@H]([C@H](OC(=O)c3ccccc3)[C@]3(O)C[C@H](OC(=O)[C@H](O)[C@@H](NC(=O)c4ccccc4)c4ccccc4)C(C)=C1C3(C)C)[C@]1(OC(C)=O)CO[C@@H]1C[C@@H]2O` [Paclitaxel, reference compound], the “Morphological effect, Hematoxylin/Eosin staining” value is reported as “early apoptosis” in the series with Chang cells and “induced severe cell damage” in the series on SiHa cells. The IC50 in series [1] (Homo sapiens, K562, value marked * (ng/mL)) worked out at 0.0048 ± 0.0004 µg/mL; in series [2] it was 0.068 ± 0.02 µM; in series [3] (Mus musculus, B16-F10, 72 h, WST-1, triplicate) it was 9.57 ± 0.2 µM; in series [4] (Homo sapiens, SiHa, value marked * (ng/mL)), 0.364 ± 0.31 µg/mL.
On to `CC[C@]1(O)C[C@@H]2CN(CCc3c([nH]c4ccccc34)[C@@](C(=O)OC)(c3cc4c(cc3OC)N(C)[C@H]3[C@@](O)(C(=O)OC)[C@H](OC(C)=O)[C@]5(CC)C=CCN6CC[C@]43[C@@H]65)C2)C1` [Vinblastine, reference compound], for which the IC50 in series [1] (Homo sapiens, K562, 72 h, WST-1, triplicate) was determined as 0.006 µM; in series [3] (Mus musculus, B16-F10, value marked * (ng/mL)) it was 0.055 ± 0.028 µg/mL; in series [4] (Homo sapiens, SiHa, 72 h, WST-1, triplicate), 10.9 ± 0.8 µM.
